# Source: US20040087543A1, “Methods and products for mucosal delivery” (priority 2002, published 2004)
# Where two headings read alike, the source gives them in different places.
# Settings: rabbit, in vivo, sc
# Experimental: For the rabbit model, 2.5-3 kg New Zealand male rabbits were used with 3 rabbits per group. Rabbits were allowed to adapt for 7 days and free access to water and food. Ketamine (40 mg/kg) and Xylazine (5 mg/kg) were used to anesthetize the rabbits. To withdraw blood samples, a 24-gauze Teflon catheter was inserted into the center auricular artery. The catheter was connected to a heparin cap filled with 0.9% saline solution.
# Enoxaparin at doses of 3 and 6 mg/kg was given by subcutaneous injection at time 0. Blood samples were collected 0, 3, 5, 10, 15, 30 min, 1, 2, 3, 4, 6, 8, 12 hours after subcutaneous injection and processed as described above. The plasma was collected at indicated times and analyzed for anti-Xa assay as described. Enoxaparin for subcutaneous injection was formulated as a solution in PBS or water at 100 mg/ml concentration and appropriate doses were injected.
# An anti-Xa assay was used to monitor plasma LMWH levels. The anti-Xa assay was performed using a modification of the amidolytic method of Teien and Lie (Thrombosis res. 10: 399-410, 1977) with the Coatest heparin test kit by using S-2222 as the chromogenic substrate (Diapharma Group, Inc. OH). […] The concentration of enoxaparin in unknown samples was calculated by comparing readings to the calibration curve which was linear in the range of 0.1-0.7 IU/ml.
# Experimental data, expressed in anti-Xa IU/mL, was utilized for non-linear regression curves based on a one-compartment model (Comelli and Fareed, Semin thromb Hemost, 25: 57-61, 1999) by using SigmaPlot program with the method of extended least squares. From the kinetic curves, the following parameters were calculated: the area under curve (AUC expressed in IU*hr*ml^−1), absorption half-life (t1/2 expressed in hr); and half-life of apparent elimination (t1/2e expressed in hr). The AUC (0-t) was calculated using the trapezoidal rule (Rowland and Tozer, Clinical Pharmacokinetics. Concepts and Applications. 459-461, Lea and Febiger, 1989) and extrapolated to infinity (AUC) by dividing the value of the last measured concentration by the elimination rate constant.
absorption half-life [h],AUC (IU*hr/mL) (3 mg/kg),Ka (3 mg/kg),Ke (3 mg/kg) [h⁻¹],MRT (AUMC/AUC) (3 mg/kg) [h],AUC (IU*hr/mL) (6 mg/kg),Ka (6 mg/kg),Ke (6 mg/kg) [h⁻¹],MRT (AUMC/AUC) (6 mg/kg) [h],Substance
1 to 2,6.93 IU*hr/mL,0.40,0.33,4.97,13.27 IU*hr/mL,0.32,0.27,5.93,dalteparin
1 to 2,6.27 IU * hr/mL,0.40,0.35,4.75,13.45 IU * hr/mL,0.35,0.3,5.48,enoxaparin
